According to patent publication US20260357349A1, “METHODS OF IDENTIFYING AND TREATING CANCER” (Agency for Science, Technology and Research, priority 2022, published 2026):

How the values were obtained:
IκBα / NF-κB = settings: mechanism; cited from earlier work
[1] = system: RELA occupancy on the chromatin (786-O cells); assay: RELA ChIP after bortezomib, 786-O; type: cell-based, human
Protocol: (§1) Colony formation of parental (WT) or PBRM1 knockout (KO) 786-O cells expressing shRNA against non-targeting control (NC), RELA, or NFKB1 cultured with a) 10% or b) 2% serum. c) Gene expression changes of NF-κB target genes in 786-O cells treated with 0.006 μM bortezomib (BTZ) or 0.6 µM Bay 11-7085 for 24 hours (n=3 technical replicates). * p-value<0.05 (two-sided t-test). […] A positive log fold change refers to gain in bortezomib treatment over DMSO. g) Colony formation of 786-O isogenic cells and h) NCC432 isogenic cells treated with bortezomib for a week. Tumor formation of isogenic 786-O cells (i) and NCC432 cells (j) treated with PBS control or 0.5 mg/kg bortezomib (BTZ) in NSG mice. (n=10 tumors per group for 786-O, and n=16 tumors for NCC432 PBS EV group and 12 tumors for NCC432 PBS PBRM1 group and 14 tumors for both NCC432 EV and PBRM1 BTZ groups). Data are presented as mean values+/−SEM. k) Model for the study.
Data are presented as median+/−25%. Lower whisker is smallest observation greater than or equal to 25% quantile-1.5*interquantile range (IQR). Upper whisker represents the largest observation less than or equal to 75%+1.5*IQR. Amount of normalized RELA protein in the c) input or d) co-immunoprecipitated with SMARCA4 from 3 independent runs. […]

[2] = system: NF-κB target genes (786-O cells); assay: RT-qPCR of NF-κB target genes after NF-κB inhibitor, 786-O; type: cell-based, human; settings: 0.006 μM bortezomib or 0.6 µM Bay 11-7085, 24 hours
Protocol: as §1

CC(C)C[C@H](NC(=O)[C@H](Cc1ccccc1)NC(=O)c1cnccn1)B(O)O [bortezomib]
effect on IκBα and NF-κB DNA binding (IκBα / NF-κB): induces nuclear translocation and accumulation of IκBα which then associates with nuclear NF-κB and inhibits its DNA binding activity
RELA occupancy (figure title) ([1]; 786-O, 0.005 μM bortezomib, 9 hours): abrogates RELA occupancy
RELA occupancy on the chromatin, PB1 KO ([1]; PB1 KO 786-O cells, ChIP-qPCR): profound reduction of RELA occupancy
suppressing the expression of NF-κB target genes [2]: effective at suppressing the expression of NF-κB target genes
